pIC50: −log10 of the molar value.
How the values were obtained:
SLK = biological target: T1, SLK (Homo sapiens, UniProt Q9H2G2); experiment: LanthaScreen Binding - Eu-anti-GST; settings: read-out: Percentage of inhibition
T1 construct: purchased Life Technologies
Method in brief: (§1)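 Each panel kinase received the compound at a fixed 1 μM; inhibition percentages were recorded, with ≥80% used as the cut-off for hits.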

KIT V559D T670I = biological target: T2, KIT V559D T670I (Homo sapiens, UniProt P10721, T670I/V559D); experiment: LanthaScreen Binding - Eu-anti-GST; settings: read-out: Percentage of inhibition
T2 construct: purchased Life Technologies
Method in brief: as §1

TEK (TIE2) R849W = biological target: T3, TEK (TIE2) R849W (Homo sapiens, UniProt Q02763, R849W); experiment: LanthaScreen Binding - Eu-anti-GST; settings: read-out: Percentage of inhibition
T3 construct: purchased Life Technologies (SelectScreen Whole Panel service)
Method in brief: as §1

MLCK (MLCK2) = MLCK (MLCK2) (Homo sapiens, UniProt Q32MK0); experiment: LanthaScreen Binding - Eu-anti-GST; settings: read-out: Percentage of inhibition
Method in brief: as §1

PRKACB (PRKAC beta) = biological target: T4, PRKACB (PRKAC beta) (Homo sapiens, UniProt P22694); experiment: LanthaScreen Binding - Eu-anti-GST; settings: read-out: Percentage of inhibition
T4 construct: purchased Life Technologies
Method in brief: as §1

MmCLK1 = MmCLK1 (Mus musculus, UniProt P22518); experiment: ADP-Glo kinase assay; assay type: biochemical, Mus musculus (Mm)
Procedure: Kinase activities were determined using the ADP-Glo methodology (ADP-Glo Kinase Assay; Promega) according to the assay described by Nguyen et al.[32] except for MmCLK1. The later was assayed in the following buffer: 10 mM MgCl2, 1 mM EGTA, 1 mM DTT, 25 mM Tris-HCl pH 7.5, 50 µg/ml heparin, 0.15 mg/ml BSA, with 0.027 µg/µl of the following peptide: GRSRSRSRSRSR as substrate.

Chain of MmCLK1 (P22518 whole entry): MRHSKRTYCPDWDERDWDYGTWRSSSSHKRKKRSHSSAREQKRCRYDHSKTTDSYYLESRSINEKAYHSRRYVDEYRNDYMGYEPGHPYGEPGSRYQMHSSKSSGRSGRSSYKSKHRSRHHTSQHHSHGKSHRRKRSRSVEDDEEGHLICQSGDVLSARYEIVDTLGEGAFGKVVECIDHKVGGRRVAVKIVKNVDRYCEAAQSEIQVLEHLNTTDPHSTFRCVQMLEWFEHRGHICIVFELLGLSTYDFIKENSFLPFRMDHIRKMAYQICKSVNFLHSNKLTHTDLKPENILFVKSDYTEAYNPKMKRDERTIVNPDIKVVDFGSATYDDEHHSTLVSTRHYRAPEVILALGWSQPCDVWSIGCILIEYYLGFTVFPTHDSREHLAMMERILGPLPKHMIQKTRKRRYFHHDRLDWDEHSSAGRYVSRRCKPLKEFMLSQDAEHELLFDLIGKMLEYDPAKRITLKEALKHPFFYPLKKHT
Chain of MLCK (MLCK2) (Q32MK0 whole entry): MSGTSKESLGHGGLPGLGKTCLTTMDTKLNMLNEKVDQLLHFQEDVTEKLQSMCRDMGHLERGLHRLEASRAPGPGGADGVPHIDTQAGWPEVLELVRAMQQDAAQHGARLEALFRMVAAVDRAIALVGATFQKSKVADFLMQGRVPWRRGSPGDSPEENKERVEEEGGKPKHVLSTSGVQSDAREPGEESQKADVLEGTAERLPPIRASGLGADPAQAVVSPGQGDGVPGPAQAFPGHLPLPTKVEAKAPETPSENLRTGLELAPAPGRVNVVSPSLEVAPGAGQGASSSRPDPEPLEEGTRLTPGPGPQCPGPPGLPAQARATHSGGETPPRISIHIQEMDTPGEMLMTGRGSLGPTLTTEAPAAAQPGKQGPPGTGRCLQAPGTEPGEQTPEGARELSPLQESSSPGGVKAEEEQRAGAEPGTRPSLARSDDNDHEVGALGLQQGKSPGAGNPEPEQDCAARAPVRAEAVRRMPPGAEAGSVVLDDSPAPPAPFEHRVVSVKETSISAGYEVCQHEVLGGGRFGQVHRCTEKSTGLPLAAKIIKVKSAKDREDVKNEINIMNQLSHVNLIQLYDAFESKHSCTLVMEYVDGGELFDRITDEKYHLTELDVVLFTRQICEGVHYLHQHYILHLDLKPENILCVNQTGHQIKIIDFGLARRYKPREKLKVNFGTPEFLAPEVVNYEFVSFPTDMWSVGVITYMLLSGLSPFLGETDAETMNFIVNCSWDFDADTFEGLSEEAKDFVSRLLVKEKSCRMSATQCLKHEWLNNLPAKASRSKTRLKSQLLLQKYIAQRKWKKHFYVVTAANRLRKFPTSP
T3 sequence (Q02763 23-1124 R849W): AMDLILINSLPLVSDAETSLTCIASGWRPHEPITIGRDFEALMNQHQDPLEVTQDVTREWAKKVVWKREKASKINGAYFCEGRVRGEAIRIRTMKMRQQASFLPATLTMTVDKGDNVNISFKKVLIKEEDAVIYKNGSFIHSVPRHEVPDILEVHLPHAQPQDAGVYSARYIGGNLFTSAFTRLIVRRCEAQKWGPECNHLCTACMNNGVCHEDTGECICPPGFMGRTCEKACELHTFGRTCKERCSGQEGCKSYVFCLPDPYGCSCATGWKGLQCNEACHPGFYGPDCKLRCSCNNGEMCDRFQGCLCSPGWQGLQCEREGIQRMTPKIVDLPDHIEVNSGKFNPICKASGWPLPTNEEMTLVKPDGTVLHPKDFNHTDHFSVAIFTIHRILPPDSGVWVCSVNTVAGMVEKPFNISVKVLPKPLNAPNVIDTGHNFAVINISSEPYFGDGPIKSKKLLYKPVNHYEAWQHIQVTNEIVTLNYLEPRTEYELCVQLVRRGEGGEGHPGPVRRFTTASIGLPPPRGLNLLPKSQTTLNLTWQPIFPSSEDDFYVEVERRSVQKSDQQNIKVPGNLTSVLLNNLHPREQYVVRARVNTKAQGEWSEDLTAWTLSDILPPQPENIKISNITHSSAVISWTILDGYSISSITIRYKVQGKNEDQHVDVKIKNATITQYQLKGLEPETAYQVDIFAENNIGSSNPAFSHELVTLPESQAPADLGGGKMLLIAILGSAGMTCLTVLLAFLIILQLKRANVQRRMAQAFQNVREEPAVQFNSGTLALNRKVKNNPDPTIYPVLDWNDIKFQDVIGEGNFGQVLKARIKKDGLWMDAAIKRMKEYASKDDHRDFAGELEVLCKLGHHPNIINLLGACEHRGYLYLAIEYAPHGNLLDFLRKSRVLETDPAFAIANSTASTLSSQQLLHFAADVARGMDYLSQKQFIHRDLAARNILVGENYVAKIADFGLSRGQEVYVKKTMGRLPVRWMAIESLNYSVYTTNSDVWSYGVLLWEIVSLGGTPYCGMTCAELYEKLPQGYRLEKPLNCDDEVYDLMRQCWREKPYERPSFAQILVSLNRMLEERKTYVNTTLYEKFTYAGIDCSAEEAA
T2 sequence (P10721 26-976 V559D/T670I): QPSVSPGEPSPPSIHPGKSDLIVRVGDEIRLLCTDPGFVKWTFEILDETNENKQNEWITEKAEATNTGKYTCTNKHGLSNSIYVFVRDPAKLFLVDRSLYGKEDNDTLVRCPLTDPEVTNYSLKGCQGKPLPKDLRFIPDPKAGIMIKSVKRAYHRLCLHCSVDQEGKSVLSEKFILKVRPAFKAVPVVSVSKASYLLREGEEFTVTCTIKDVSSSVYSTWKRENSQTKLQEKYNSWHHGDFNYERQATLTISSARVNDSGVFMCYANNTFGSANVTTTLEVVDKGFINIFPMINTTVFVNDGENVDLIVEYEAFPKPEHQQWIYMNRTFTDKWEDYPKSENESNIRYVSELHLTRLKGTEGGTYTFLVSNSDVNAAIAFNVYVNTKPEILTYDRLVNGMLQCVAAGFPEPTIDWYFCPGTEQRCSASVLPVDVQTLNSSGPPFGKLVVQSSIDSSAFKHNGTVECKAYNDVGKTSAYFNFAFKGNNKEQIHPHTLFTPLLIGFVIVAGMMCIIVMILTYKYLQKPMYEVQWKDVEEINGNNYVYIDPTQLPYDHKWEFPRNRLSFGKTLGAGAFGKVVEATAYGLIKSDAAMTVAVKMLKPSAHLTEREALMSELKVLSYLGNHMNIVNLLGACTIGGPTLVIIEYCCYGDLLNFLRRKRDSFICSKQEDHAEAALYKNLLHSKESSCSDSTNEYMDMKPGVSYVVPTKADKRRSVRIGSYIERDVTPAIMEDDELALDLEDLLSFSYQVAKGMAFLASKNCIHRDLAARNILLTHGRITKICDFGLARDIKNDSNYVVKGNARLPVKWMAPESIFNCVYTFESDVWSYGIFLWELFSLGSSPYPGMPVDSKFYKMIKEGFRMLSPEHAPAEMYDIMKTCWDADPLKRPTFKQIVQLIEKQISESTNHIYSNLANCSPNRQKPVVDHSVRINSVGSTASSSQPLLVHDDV
T1 sequence (Q9H2G2 whole entry): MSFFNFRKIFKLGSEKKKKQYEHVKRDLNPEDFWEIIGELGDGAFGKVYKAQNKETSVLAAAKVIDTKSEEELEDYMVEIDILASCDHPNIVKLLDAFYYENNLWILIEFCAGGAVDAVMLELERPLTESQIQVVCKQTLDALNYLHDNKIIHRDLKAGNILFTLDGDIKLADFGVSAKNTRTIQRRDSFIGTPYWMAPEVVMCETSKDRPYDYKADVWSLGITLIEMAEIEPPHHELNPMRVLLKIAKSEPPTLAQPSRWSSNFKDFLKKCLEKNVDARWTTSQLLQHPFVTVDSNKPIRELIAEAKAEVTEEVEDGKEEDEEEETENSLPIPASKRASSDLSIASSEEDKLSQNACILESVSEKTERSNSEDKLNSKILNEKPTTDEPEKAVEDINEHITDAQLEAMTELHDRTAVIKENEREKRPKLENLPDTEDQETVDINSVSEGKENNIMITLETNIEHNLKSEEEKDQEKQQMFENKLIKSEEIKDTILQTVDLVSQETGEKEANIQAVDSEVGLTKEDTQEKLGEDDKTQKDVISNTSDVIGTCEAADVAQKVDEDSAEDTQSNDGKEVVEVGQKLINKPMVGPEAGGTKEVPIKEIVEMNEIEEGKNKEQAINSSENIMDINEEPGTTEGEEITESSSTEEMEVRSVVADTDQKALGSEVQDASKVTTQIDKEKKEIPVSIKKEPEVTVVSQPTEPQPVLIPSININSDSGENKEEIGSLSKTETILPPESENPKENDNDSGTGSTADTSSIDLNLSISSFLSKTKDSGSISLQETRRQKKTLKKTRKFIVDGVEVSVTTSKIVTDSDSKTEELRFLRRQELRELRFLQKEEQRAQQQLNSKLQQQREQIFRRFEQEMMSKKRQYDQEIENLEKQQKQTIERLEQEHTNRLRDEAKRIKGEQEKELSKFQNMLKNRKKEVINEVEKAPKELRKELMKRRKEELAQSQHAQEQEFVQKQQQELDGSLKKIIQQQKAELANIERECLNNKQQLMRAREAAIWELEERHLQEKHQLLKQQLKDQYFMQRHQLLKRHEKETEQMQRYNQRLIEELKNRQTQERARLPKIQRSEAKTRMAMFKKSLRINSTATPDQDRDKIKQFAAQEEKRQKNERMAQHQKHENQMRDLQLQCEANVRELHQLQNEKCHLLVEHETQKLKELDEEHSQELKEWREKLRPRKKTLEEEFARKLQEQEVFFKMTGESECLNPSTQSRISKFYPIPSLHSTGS

COc1ccc2[nH]c3c(=O)[nH]c4ccc(O)cc4c3c2c1 [Compound 55, 2-Hydroxy-10-methoxy-5,7-dihydro-6H-indolo[2,3-c]quinolin-6-one]
inhibition at 1 µM (SLK): 40% | inhibition at 1 µM (KIT V559D T670I): 32% | inhibition at 1 µM (TEK (TIE2) R849W): 11% | inhibition at 1 µM (MLCK (MLCK2)): 62% | inhibition at 1 µM (PRKACB (PRKAC beta)): 35% | remaining activity at 1 µM (MmCLK1; 1 μM, mean n = 2, % of maximum activity of DMSO control, read-out: % Residual activity at 1 μM CLK1): 14% | Selectivity index CLK1/Haspin (MmCLK1; IC50 CLK1/IC50 Haspin): 17 | pIC50 (MmCLK1; dose-response curve, each point in duplicate, read-out: Kinase inhibition (IC50) CLK1): 7.48
